Test results published in patent US8618095B2 (Rigel Pharmaceuticals, Inc., priority 2010, dated 2013).
Where a name gives a salt, the structure may show the parent alone.

tested on: Human mast cells (CHMC); assay: LD Tryptase release assay in CHMC (mast cell activation induced by FcγR cross-linking); assay type: cell-based; details: Homo sapiens, Mast cell, anti-IgG stimulation, activity of tryptase released upon degranulation
Summary of the method: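 Mast cells derived from CD38-negative progenitors were preincubated 1 h at 37 °C with compound in HEPES-buffered saline (pH 7.4, 0.1% BSA, compound diluted in buffer with 2% MeOH/1% DMSO). Cells were then stimulated 60 min with anti-human IgG (final 1 μg/mL). Released tryptase was measured on Z-Ala-Lys-Arg-AMC (30 min, room temperature, 355/460 nm) to give the IC50.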

Structure (SMILES) | IC50 [nM]
C[C@@H]1CN(c2ccc(Nc3ncc(F)c(Nc4ccc5c(n4)NC(=O)C(C)(C)O5)n3)cc2)C[C@H](C)O1 [Compound 36, rac-Cis-N4-(2,2-dimethyl-3,4-dihydro-3-oxo-2H-pyrido[3,2-b][1,4]oxazin-6-yl)-5-fluoro-N2-[4-(2,6-dimethylmorpholino)phenyl]-2,4-pyrimidinediamine] | 100 to 500
COCC1CCN(c2ccc(Nc3ncc(F)c(Nc4ccc5c(n4)NC(=O)C(C)(C)O5)n3)cc2)CC1 [Compound 155, N4-(2,2-dimethyl-3,4-dihydro-3-oxo-2H-pyrido[3,2-b][1,4]oxazin-6-yl)-5-fluoro-N2-[4-(4-(methoxymethyl)piperidin-1-yl)phenyl]-2,4-pyrimidinediamine] | 100 to 500
CC(C)Oc1cc(Nc2ncc(F)c(Nc3ccc4c(n3)NC(=O)C(C)(C)O4)n2)ccc1N1CCOCC1 [Compound 45, N4-(2,2-dimethyl-3,4-dihydro-3-oxo-2H-pyrido[3,2-b][1,4]oxazin-6-yl)-5-fluoro-N2-[3-(2-propoxy)-4-morpholinophenyl]-2,4-pyrimidinediamine] | 1000 to 100000
CCOC[C@@H]1CN(c2ccc(Nc3ncc(F)c(Nc4ccc5c(n4)NC(=O)C(C)(C)O5)n3)cn2)CCO1 [Compound 101, N4-(2,2-dimethyl-3,4-dihydro-3-oxo-2H-pyrido[3,2-b][1,4]oxazin-6-yl)-N2-[6-(((2S)-2-ethoxymethyl)morpholino)pyridin-3-yl]-5-fluoro-2,4-pyrimidinediamine] | 100 to 500
C[C@H]1CN(c2ccc(Nc3ncc(F)c(Nc4ccc5c(n4)NC(=O)C(C)(C)O5)n3)cc2)CCO1 [Compound 79, N4-(2,2-dimethyl-3,4-dihydro-3-oxo-2H-pyrido[3,2-b][1,4]oxazin-6-yl)-5-fluoro-N2-1-2,4-pyrimidinediamine] | 100 to 500
O=C1COc2ccc(Nc3nc(Nc4ccc5c(c4)OCC4COCCN54)ncc3F)nc2N1 (centres unmarked) [Compound 84, N4-(3,4-dihydro-3-oxo-2H-pyrido[3,2-b][1,4]oxazin-6-yl)-5-fluoro-N2-[1,2,4a,5-tetrahydro-4H-[1,4]oxazino[3,4-c][1,4]benzoxazin-8-yl]-2,4-pyrimidinediamine] | 100 to 500
CC1(C)Oc2ccc(Nc3nc(Nc4ccc(N5CCC(F)(F)CC5)cc4)ncc3F)nc2NC1=O [Compound 29, N4-(2,2-dimethyl-3,4-dihydro-3-oxo-2H-pyrido[3,2-b][1,4]oxazin-6-yl)-5-fluoro-N2-[4-(4,4-difluoro-1-piperidinyl)phenyl]-2,4-pyrimidinediamine] | 1000 to 100000
C=C1COCCN1c1ccc(Nc2ncc(F)c(Nc3ccc4c(n3)NC(=O)C(C)(C)O4)n2)cn1 [Compound 58, N4-(2,2-dimethyl-3,4-dihydro-3-oxo-2H-pyrido[3,2-b][1,4]oxazin-6-yl)-5-fluoro-N2-[6-(3-methylenemorpholino)pyridin-3-yl]-2,4-pyrimidinediamine] | 1000 to 100000
CN(C[C@@H]1CCCO1)c1ccc(Nc2ncc(F)c(Nc3ccc4c(n3)NC(=O)C(C)(C)O4)n2)cn1 [Compound 109] | 100 to 500
CC1(C)Oc2ccc(Nc3nc(Nc4ccc(N5CCC(O)C5)nc4)ncc3F)nc2NC1=O (stereo in doubt) [Compound 55, N4-(2,2-dimethyl-3,4-dihydro-3-oxo-2H-pyrido[3,2-b][1,4]oxazin-6-yl)-5-fluoro-N2-[6-((3R)-3-hydroxypyrrolidin-1-yl)pyridin-3-yl]-2,4-pyrimidinediamine] | < 100
C[C@@H]1COCCN1c1ccc(Nc2ncc(F)c(Nc3ccc4c(n3)NC(=O)CO4)n2)cn1 [Compound 51, N4-(3,4-dihydro-3-oxo-2H-pyrido[3,2-b][1,4]oxazin-6-yl)-5-fluoro-N2-[6-((3R)-3-methylmorpholino)pyridin-3-yl]-2,4-pyrimidinediamine] | < 100
CCOC[C@@H]1CN(c2ccc(Nc3ncc(F)c(Nc4ccc5c(n4)NC(=O)CO5)n3)cn2)CCO1 [Compound 100, N4-(3,4-dihydro-3-oxo-2H-pyrido[3,2-b][1,4]oxazin-6-yl)-N2-[6-(((2S)-2-ethoxymethyl)morpholino)pyridin-3-yl]-5-fluoro-2,4-pyrimidinediamine] | 100 to 500
CC1(C)Oc2ccc(Nc3nc(Nc4ccc(N5C[C@@H]6C[C@H]5CO6)cc4)ncc3F)nc2NC1=O [Compound 38, N4-(2,2-dimethyl-3,4-dihydro-3-oxo-2H-pyrido[3,2-b][1,4]oxazin-6-yl)-5-fluoro-N2-[4-((1S,4S)-5-oxa-2-aza-bicyclo[2.2.1]heptan-2-yl)phenyl]-2,4-pyrimidinediamine] | < 100
CCOC1CCN(c2ccc(Nc3ncc(F)c(Nc4ccc5c(n4)NC(=O)C(C)(C)O5)n3)cn2)CC1 [Compound 54, N4-(2,2-dimethyl-3,4-dihydro-3-oxo-2H-pyrido[3,2-b][1,4]oxazin-6-yl)-5-fluoro-N2-[6-(4-ethoxypiperidin-1-yl)pyridin-3-yl]-2,4-pyrimidinediamine] | 1000 to 100000
CC1(C)Oc2ccc(Nc3nc(Nc4ccc(N5CCN6CCC5CC6)nc4)ncc3F)nc2NC1=O [Compound 62, N4-(2,2-dimethyl-3,4-dihydro-3-oxo-2H-pyrido[3,2-b][1,4]oxazin-6-yl)-5-fluoro-N2-[6-(1,4-diazabicyclo[3.2.2]nonan-4-yl)pyridin-3-yl]-2,4-pyrimidinediamine] | 500 to 1000
O=C1COc2ccc(Nc3nc(Nc4ccc(N5CCCOCC5)cc4)ncc3F)nc2N1 [Compound 44, N4-(3,4-dihydro-3-oxo-2H-pyrido[3,2-b][1,4]oxazin-6-yl)-5-fluoro-N2-[4-homomorpholinophenyl]-2,4-pyrimidinediamine] | 100 to 500
CC1(C)Oc2ccc(Nc3nc(Nc4ccc(N5CCC(C#N)CC5)cc4)ncc3F)nc2NC1=O [Compound 154, N4-(2,2-dimethyl-3,4-dihydro-3-oxo-2H-pyrido[3,2-b][1,4]oxazin-6-yl)-5-fluoro-N2-[4-(4-cyanopiperidin-1-yl)phenyl]-2,4-pyrimidinediamine] | 100 to 500
C[C@@H]1COCCN1c1ccc(Nc2ncc(F)c(Nc3ccc4c(n3)NC(=O)CO4)n2)cc1 [Compound 82] | 100 to 500
Cc1cc(Nc2ncc(F)c(Nc3ccc4c(n3)NC(=O)C(C)(C)O4)n2)ccc1N1CCC2(CCOC2)CC1 [Compound 159, N4-(2,2-dimethyl-3,4-dihydro-3-oxo-2H-pyrido[3,2-b][1,4]oxazin-6-yl)-5-fluoro-N2-[3-methyl-4-(2-oxa-8-azaspiro[4.5]decan-8-yl)phenyl]-2,4-pyrimidinediamine] | 500 to 1000
O=C1COc2ccc(Nc3nc(Nc4ccc(N5CCO[C@H](CCO)C5)cc4)ncc3F)nc2N1 (stereo in doubt) [Compound 125, N4-(3,4-dihydro-3-oxo-2H-pyrido[3,2-b][1,4]oxazin-6-yl)-5-fluoro-N2-[4-((2-hydroxyethyl)morpholino)phenyl]-2,4-pyrimidinediamine] | < 100
CCOC[C@H]1CN(c2ccc(Nc3ncc(F)c(Nc4ccc5c(n4)NC(=O)C(C)(C)O5)n3)cn2)CCO1 [Compound 103, N4-(2,2-dimethyl-3,4-dihydro-3-oxo-2H-pyrido[3,2-b][1,4]oxazin-6-yl)-N2-[6-(((2R)-2-ethoxymethyl)morpholino)pyridin-3-yl]-5-fluoro-2,4-pyrimidinediamine] | 100 to 500
O=C1COc2ccc(Nc3nc(Nc4ccc(N5CCOCC5)nc4)ncc3F)nc2N1 [Compound 5, N4-(3,4-dihydro-3-oxo-2H-pyrido[3,2-b][1,4]oxazin-6-yl)-5-fluoro-N2-[6-morpholinopyridin-3-yl]-2,4-pyrimidinediamine] | 100 to 500
O=C1COc2ccc(Nc3nc(Nc4ccc(C5CCOCC5)cc4)ncc3F)nc2N1 [Compound 46, N4-(3,4-dihydro-3-oxo-2H-pyrido[3,2-b][1,4]oxazin-6-yl)-5-fluoro-N2-[4-tetrahydropyranophenyl]-2,4-pyrimidinediamine] | < 100
CO[C@@H]1CCN(c2ccc(Nc3ncc(F)c(Nc4ccc5c(n4)NC(=O)C(C)(C)O5)n3)cn2)C1 [Compound 65, N4-(2,2-dimethyl-3,4-dihydro-3-oxo-2H-pyrido[3,2-b][1,4]oxazin-6-yl)-5-fluoro-N2-[6-((3R)-3-methoxypyrrolidin-1-yl)pyridin-3-yl]-2,4-pyrimidinediamine] | 100 to 500
C[C@@H]1CN(c2ccc(Nc3ncc(F)c(Nc4ccc5c(n4)NC(=O)CO5)n3)cc2)C[C@H](C)O1 [Compound 35, rac-Cis-N4-(3,4-dihydro-3-oxo-2H-pyrido[3,2-b][1,4]oxazin-6-yl)-5-fluoro-N2-[4-(2,6-dimethylmorpholino)phenyl]-2,4-pyrimidinediamine] | 100 to 500
O=C1Nc2nc(Nc3nc(Nc4ccc(N5CCOCC5)cc4)ncc3F)ccc2OC12CCC2 [Compound 123, 5-Fluoro-N2-(4-morpholinophenyl)-N4-(3′-oxo-3′,4′-dihydrospiro[cyclobutane-1,2′-pyrido[3,2-b][1,4]oxazine]-6-yl)-2,4-pyrimidinediamine] | 100 to 500

same assay, conditions: Mast cell, anti-IgG stimulation, activity of tryptase released upon degranulation

Structure (SMILES) | IC50 [nM]
CC1(C)Oc2ccc(Nc3nc(Nc4ccc(N5CCOCC5)cc4)ncc3F)nc2N(COP(=O)(O)O)C1=O [Compound 2, N4-(2,2-dimethyl-3,4-dihydro-4-[(dihydrogenphosphonoxy)methyl]-3-oxo-2H-pyrido[3,2-b][1,4]oxazin-6-yl)-5-fluoro-N2-(4-morpholinophenyl)-2,4-pyrimidinediamine] | 1000 to 100000

same assay, conditions: anti-IgG stimulation, activity of tryptase released upon degranulation

Structure (SMILES) | IC50 [nM]
CC1(C)Oc2ccc(Nc3nc(Nc4ccc(N5CCOCC5)nc4)ncc3F)nc2NC1=O [Compound 139, N4-(2,2-dimethyl-3,4-dihydro-3-oxo-2H-pyrido[3,2-b][1,4]oxazin-6-yl)-5-fluoro-N2-[6-morpholinopyridin-3-yl]-2,4-pyrimidinediamine p-toluenesulfonic acid salt] | 500 to 1000
Cc1cc(Nc2ncc(F)c(Nc3ccc4c(n3)N(COP(=O)(O)O)C(=O)C(C)(C)O4)n2)ccc1N1CCOCC1 [Compound 112, N4-(2,2-dimethyl-3,4-dihydro-4-[(dihydrogenphosphonoxy)methyl]-3-oxo-2H-pyrido[3,2-b][1,4]oxazin-6-yl)-5-fluoro-N2-(3-methyl-4-morpholinophenyl)-2,4-pyrimidinediamine disodium salt] | 500 to 1000
